Measurements from ChEMBL document CHEMBL1201862, “PubChem BioAssay data set” (2004).
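Cultured in 96-well plates, cells were exposed to test compound for 48 hours across five concentrations. GI50 is the concentration that inhibits growth by half.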 The source made the active and inactive calls. No stated cut-off is given here; in the data, active = GI50 up to about 1.1 µM and inactive = higher.

What was measured:
Assay in all cases: DTP human tumour cell line panel, 48 h
786-0 = tested on: 786-0
A498 = tested on: A498
ACHN = tested on: ACHN
CAKI-1 = tested on: CAKI-1
DU-145 = tested on: DU-145
PC-3 = tested on: PC-3
RPMI-8226 = tested on: RPMI-8226
RXF 393 = tested on: RXF 393
SN12C = tested on: SN12C
TK-10 = tested on: TK-10
UO-31 = tested on: UO-31
A549 = tested on: A549
CCRF-CEM = tested on: CCRF-CEM
COLO 205 = tested on: COLO 205
EKVX = tested on: EKVX
HCC 2998 = tested on: HCC 2998
HCT-116 = tested on: HCT-116
HCT-15 = tested on: HCT-15
HL-60 = tested on: HL-60
HOP-62 = tested on: HOP-62
HT-29 = tested on: HT-29
Hs-578T = tested on: Hs-578T
IGROV-1 = tested on: IGROV-1
K562 = tested on: K562
KM12 = tested on: KM12
LOX IMVI = tested on: LOX IMVI
M14 = tested on: M14
MCF7 = tested on: MCF7
MDA-MB-231 = tested on: MDA-MB-231
MDA-MB-435 = tested on: MDA-MB-435
MOLT-4 = tested on: MOLT-4
Malme-3M = tested on: Malme-3M
NCI-H226 = tested on: NCI-H226
NCI-H23 = tested on: NCI-H23
NCI-H460 = tested on: NCI-H460
NCI-H522 = tested on: NCI-H522
NCI/ADR-RES = tested on: NCI/ADR-RES
OVCAR-3 = tested on: OVCAR-3
OVCAR-4 = tested on: OVCAR-4
OVCAR-5 = tested on: OVCAR-5
OVCAR-8 = tested on: OVCAR-8
SF-268 = tested on: SF-268
SF-295 = tested on: SF-295
SF-539 = tested on: SF-539
SK-MEL-28 = tested on: SK-MEL-28
SK-MEL-2 = tested on: SK-MEL-2
SK-MEL-5 = tested on: SK-MEL-5
SK-OV-3 = tested on: SK-OV-3
SNB-19 = tested on: SNB-19
SNB-75 = tested on: SNB-75
SR = tested on: SR
SW-620 = tested on: SW-620
T47D = tested on: T47D
U-251 = tested on: U-251
UACC-257 = tested on: UACC-257
UACC-62 = tested on: UACC-62
HOP-92 = tested on: HOP-92
MDA-N = tested on: MDA-N

COc1cc(OC)cc(Oc2nc3cc(N)cc(N)c3nc2-c2ccccc2)c1
GI50 (786-0): 2.19 µM (inactive) | GI50 (A498): 1.95 µM (inactive) | GI50 (ACHN): 4.25 µM (inactive) | GI50 (CAKI-1): 4.19 µM (inactive) | GI50 (DU-145): 4.52 µM (inactive) | GI50 (PC-3): 3.85 µM (inactive) | GI50 (RPMI-8226): 2.86 µM (inactive) | GI50 (RXF 393): 1.02 µM (active) | GI50 (SN12C): 4.4 µM (inactive) | GI50 (TK-10): 1.73 µM (inactive) | GI50 (UO-31): 3.44 µM (inactive)

O=C1NCC2(CCN(CC3COc4ccccc4O3)CC2)N1c1ccccc1 (stereo not given)
GI50 (786-0): > 100 µM (inactive) | GI50 (A498): > 100 µM (inactive) | GI50 (A549): > 100 µM (inactive) | GI50 (ACHN): > 100 µM (inactive) | GI50 (CAKI-1): > 100 µM (inactive) | GI50 (CCRF-CEM): > 100 µM (inactive) | GI50 (COLO 205): > 100 µM (inactive) | GI50 (DU-145): > 100 µM (inactive) | GI50 (EKVX): > 100 µM (inactive) | GI50 (HCC 2998): > 100 µM (inactive) | GI50 (HCT-116): > 100 µM (inactive) | GI50 (HCT-15): > 100 µM | GI50 (HL-60): 60.3 µM (inactive) | GI50 (HOP-62): > 100 µM (inactive) | GI50 (HT-29): > 100 µM (inactive) | GI50 (Hs-578T): > 100 µM (inactive) | GI50 (IGROV-1): > 100 µM (inactive) | GI50 (K562): 80.4 µM (inactive) | GI50 (KM12): > 100 µM (inactive) | GI50 (LOX IMVI): > 100 µM (inactive) | GI50 (M14): > 100 µM (inactive) | GI50 (MCF7): > 100 µM (inactive) | GI50 (MDA-MB-231): > 100 µM (inactive) | GI50 (MDA-MB-435): > 100 µM (inactive) | GI50 (MOLT-4): 71.1 µM (inactive) | GI50 (Malme-3M): > 100 µM (inactive) | GI50 (NCI-H226): > 100 µM (inactive) | GI50 (NCI-H23): > 100 µM (inactive) | GI50 (NCI-H460): > 100 µM (inactive) | GI50 (NCI-H522): > 100 µM (inactive) | GI50 (NCI/ADR-RES): > 100 µM (inactive) | GI50 (OVCAR-3): > 100 µM (inactive) | GI50 (OVCAR-4): > 100 µM (inactive) | GI50 (OVCAR-5): > 100 µM (inactive) | GI50 (OVCAR-8): > 100 µM (inactive) | GI50 (PC-3): > 100 µM (inactive) | GI50 (RPMI-8226): > 100 µM (inactive) | GI50 (RXF 393): > 100 µM (inactive) | GI50 (SF-268): > 100 µM (inactive) | GI50 (SF-295): > 100 µM (inactive) | GI50 (SF-539): > 100 µM (inactive) | GI50 (SK-MEL-28): 89.5 µM (inactive) | GI50 (SK-MEL-2): > 100 µM (inactive) | GI50 (SK-MEL-5): > 100 µM (inactive) | GI50 (SK-OV-3): > 100 µM (inactive) | GI50 (SN12C): > 100 µM (inactive) | GI50 (SNB-19): > 100 µM (inactive) | GI50 (SNB-75): > 100 µM (inactive) | GI50 (SR): > 100 µM (inactive) | GI50 (SW-620): > 100 µM (inactive) | GI50 (T47D): > 100 µM (inactive) | GI50 (TK-10): > 100 µM (inactive) | GI50 (U-251): > 100 µM (inactive) | GI50 (UACC-257): > 100 µM (inactive) | GI50 (UACC-62): > 100 µM (inactive) | GI50 (UO-31): > 100 µM (inactive)

C/C(=N\NC(=O)c1ccncc1)c1cccc(F)c1
GI50 (786-0): > 10 µM (inactive) | GI50 (A498): > 10 µM (inactive) | GI50 (A549): > 10 µM (inactive) | GI50 (ACHN): > 10 µM (inactive) | GI50 (CAKI-1): > 10 µM (inactive) | GI50 (CCRF-CEM): > 10 µM (inactive) | GI50 (COLO 205): > 10 µM (inactive) | GI50 (HCC 2998): > 10 µM (inactive) | GI50 (HCT-116): > 10 µM (inactive) | GI50 (HCT-15): > 10 µM | GI50 (HL-60): > 10 µM (inactive) | GI50 (HOP-62): > 10 µM (inactive) | GI50 (HOP-92): > 10 µM (inactive) | GI50 (IGROV-1): > 10 µM (inactive) | GI50 (K562): > 10 µM (inactive) | GI50 (KM12): > 10 µM (inactive) | GI50 (LOX IMVI): > 10 µM (inactive) | GI50 (M14): > 10 µM (inactive) | GI50 (MCF7): > 10 µM (inactive) | GI50 (MDA-N): > 10 µM (inactive) | GI50 (MOLT-4): > 10 µM (inactive) | GI50 (Malme-3M): > 10 µM (inactive) | GI50 (NCI-H226): > 10 µM (inactive) | GI50 (NCI-H23): > 10 µM (inactive) | GI50 (NCI-H460): > 10 µM (inactive) | GI50 (NCI/ADR-RES): > 10 µM (inactive) | GI50 (OVCAR-3): > 10 µM (inactive) | GI50 (OVCAR-5): > 10 µM (inactive) | GI50 (OVCAR-8): > 10 µM (inactive) | GI50 (PC-3): > 10 µM (inactive) | GI50 (RPMI-8226): > 10 µM (inactive) | GI50 (RXF 393): > 10 µM (inactive) | GI50 (SF-268): > 10 µM (inactive) | GI50 (SF-295): > 10 µM (inactive) | GI50 (SF-539): > 10 µM (inactive) | GI50 (SK-MEL-28): > 10 µM (inactive) | GI50 (SK-MEL-2): > 10 µM (inactive) | GI50 (SK-MEL-5): > 10 µM (inactive) | GI50 (SK-OV-3): > 10 µM (inactive) | GI50 (SN12C): > 10 µM (inactive) | GI50 (SNB-19): > 10 µM (inactive) | GI50 (SNB-75): > 10 µM (inactive) | GI50 (SR): > 10 µM (inactive) | GI50 (SW-620): > 10 µM (inactive) | GI50 (T47D): > 10 µM (inactive) | GI50 (TK-10): > 10 µM (inactive) | GI50 (U-251): > 10 µM (inactive) | GI50 (UO-31): > 10 µM (inactive)
